Assay results as given in US20250170140A1, “PHARMACEUTICAL COMPOSITION FOR PREVENTING OR TREATING CANCER COMPRISING CARNITINE ACYLCARNITINE CARRIER INHIBITOR AND PEROXISOMAL BETA OXIDATION INHIBITOR” (priority 2021, published 2025).
Where two headings read alike, the source gives them in different places.

Legend:
Assay type in all cases: cell-based
MIA PaCa-2 = assay: SRB assay, cancer cell growth, pancreatic cancer cell line MIA PaCa-2
Experimental: (§1) As a comparison, omeprazole (KN510) and trimetazidine (KN713), a 3-ketoacyl CoA thiolase inhibitor, were co-treated. […] After cell inoculation, 96-well cell culture plates were incubated for 24 hours before the addition of experimental drugs. […] The cells were then incubated in a CO2 incubator for 48 hours, after which the assay was terminated by the addition of cold TCA. Cells were fixed in situ by gently adding 50 μl of cold 50% (w/v) TCA (final concentration: 10% TCA) and incubated at 4° C. for 60 min. The supernatant was discarded, and the plate was washed five times with distilled water and air dried. Sulforhodamine B (SRB) solution (100 μl) of 0.4% (w/v) in 1% acetic acid was added to each well, and the plate was left at room temperature for 10 min. After staining, unbound dye was removed by washing five times with 1% acetic acid, and the plate was air-dried. The bound dye was then solubilized with 10 mM trizma base, and the absorbance was recorded at 515 nm using an automated plate reader. […] The predicted synergistic activity of a combination of the present invention can be calculated using the Colby Equation in Equation 1 (S.R. Colby, Weeds, 1967, pp. 15, 20-22): α and β are the measured anti-cancer activity of each compound alone, and E is the predicted anti-cancer activity of a mixture of α and β as a prediction. In the present invention, the actual measure of anti-cancer activity of the combination treatment was the inhibition rate of cancer cell growth (%), and the predicted value (E) of the combination treatment was measured by substituting it into the above Colby Equation.

MDA-MB-231 cells = assay: SRB assay, breast cancer cell line MDA-MB-231
Experimental: as §1, with “20-22):” for “20-22): α and β are the measured anti-cancer activity of each compound alone, and E is the predicted anti-cancer activity of a mixture of α and β as a prediction.”

HCT-116 cells = assay: SRB assay, colon cancer cell line HCT-116
Experimental: as §1, with “20-22):” for “20-22): α and β are the measured anti-cancer activity of each compound alone, and E is the predicted anti-cancer activity of a mixture of α and β as a prediction.”

SF295 cells = assay: SRB assay, glioblastoma cell line SF295
Experimental: as §1, with “20-22):” for “20-22): α and β are the measured anti-cancer activity of each compound alone, and E is the predicted anti-cancer activity of a mixture of α and β as a prediction.”

Hep-3B cells = assay: SRB assay, liver cancer cell line Hep-3B
Experimental: as §1, with “20-22):” for “20-22): α and β are the measured anti-cancer activity of each compound alone, and E is the predicted anti-cancer activity of a mixture of α and β as a prediction.”

K562 cells = assay: SRB assay, leukemia cell line K562
Experimental: as §1, with “20-22):” for “20-22): α and β are the measured anti-cancer activity of each compound alone, and E is the predicted anti-cancer activity of a mixture of α and β as a prediction.”

SK-MEL-5 = assay: SRB assay, melanoma cell line SK-MEL-5
Experimental: as §1, with “20-22):” for “20-22): α and β are the measured anti-cancer activity of each compound alone, and E is the predicted anti-cancer activity of a mixture of α and β as a prediction.”

A549 cells = assay: SRB assay, lung cancer cells A549
Experimental: as §1, with “20-22):” for “20-22): α and β are the measured anti-cancer activity of each compound alone, and E is the predicted anti-cancer activity of a mixture of α and β as a prediction.”

SK-OV-3 cells = assay: SRB assay, ovarian cancer cells SK-OV-3
Experimental: as §1, with “20-22):” for “20-22): α and β are the measured anti-cancer activity of each compound alone, and E is the predicted anti-cancer activity of a mixture of α and β as a prediction.”

PC-3 cells = assay: SRB assay, prostate cancer cells PC-3
Experimental: as §1, with “20-22):” for “20-22): α and β are the measured anti-cancer activity of each compound alone, and E is the predicted anti-cancer activity of a mixture of α and β as a prediction.”

PANC-1 cells = assay: SRB assay, pancreatic cancer cell line PANC-1
Experimental: as §1, with “20-22):” for “20-22): α and β are the measured anti-cancer activity of each compound alone, and E is the predicted anti-cancer activity of a mixture of α and β as a prediction.”

CAKI-1 cells = assay: SRB assay, renal cell carcinoma cell line CAKI-1
Experimental: as §1, with “20-22):” for “20-22): α and β are the measured anti-cancer activity of each compound alone, and E is the predicted anti-cancer activity of a mixture of α and β as a prediction.”

AGS cells = assay: SRB assay, stomach cancer cell line AGS
Experimental: as §1, with “20-22):” for “20-22): α and β are the measured anti-cancer activity of each compound alone, and E is the predicted anti-cancer activity of a mixture of α and β as a prediction.”

MKN-28 cells = assay: SRB assay, stomach cancer cell line MKN-28
Experimental: as §1, with “20-22):” for “20-22): α and β are the measured anti-cancer activity of each compound alone, and E is the predicted anti-cancer activity of a mixture of α and β as a prediction.”

[1] = Homo sapiens, KN510 100 μM, read-out: Inhibition rate of cancer cell growth (%) (Actual value)
[2] = Homo sapiens, KN510 200 μM, read-out: Inhibition rate of cancer cell growth (%) (Actual value)

GI50 (MIA PaCa-2; Homo sapiens, MIA PaCa-2, 48 hours, read-out: GI50 (Half maximal growth inhibition concentration)): 117 µM
Compound: COc1ccc2[nH]c([S+]([O-])Cc3ncc(C)c(OC)c3C)nc2c1 (stereo not shown) [KN510, omeprazole]
inhibition at 100 µM (MIA PaCa-2; Homo sapiens, MIA PaCa-2, MIA PaCa-2 (Example 11), KN510 100 μM, read-out: Inhibition rate of cancer cell growth (%) (Actual value)): 30.2%
inhibition at 200 µM (MIA PaCa-2; Homo sapiens, MIA PaCa-2, MIA PaCa-2 (Example 11), KN510 200 μM, read-out: Inhibition rate of cancer cell growth (%) (Actual value)): 78.2%
inhibition at 200 µM (MIA PaCa-2; Homo sapiens, MIA PaCa-2, MIA PaCa-2, Example 1-3, Table 4, KN510 200 μM, read-out: Inhibition rate of cancer cell growth (%) (Actual value)): 74.1%
Cancer cell growth rate Average (%) (MIA PaCa-2; MIA PaCa-2 (Example 11), KN510 100 μM): 69.78%
Cancer cell growth rate Average (%) (MIA PaCa-2; MIA PaCa-2 (Example 11), KN510 200 μM): 21.75%
Cancer cell growth rate Average (%) (MIA PaCa-2; MIA PaCa-2, Conc. 10^−3M, Table 1): −17.07%
Cancer cell growth rate Average (%) (MIA PaCa-2; MIA PaCa-2, Conc. 10^−4M, Table 1): 68.78%
Cancer cell growth rate Average (%) (MIA PaCa-2; MIA PaCa-2, Conc. 10^−5M, Table 1): 94.56%
Cancer cell growth rate Average (%) (MIA PaCa-2; MIA PaCa-2, Conc. 10^−6M, Table 1): 93.66%
Cancer cell growth rate Average (%) (MIA PaCa-2; MIA PaCa-2, Conc. 10^−7M, Table 1): 97.84%
Cancer cell growth rate Average (%) (MIA PaCa-2; MIA PaCa-2, Conc. 10^−8M, Table 1): 101.17%
Cancer cell growth rate Average (%) (MIA PaCa-2; MIA PaCa-2, Example 1-2, Table 2, KN510 200 μM): 25.89%
Cancer cell growth rate Average (%) (MIA PaCa-2; MIA PaCa-2, comparative example, Table 3, KN510 100 μM): 69.73%
Cancer cell growth rate Average (%) (MIA PaCa-2; MIA PaCa-2, comparative example, Table 3, KN510 200 μM): 35.32%
inhibition at 100 µM (MDA-MB-231 cells; [1]): 29.7%
inhibition at 200 µM (MDA-MB-231 cells; [2]): 71.9%
Cancer cell growth rate Average (%) (MDA-MB-231 cells; KN510 100 μM): 70.29%
Cancer cell growth rate Average (%) (MDA-MB-231 cells; KN510 200 μM): 28.13%
inhibition at 100 µM (HCT-116 cells; [1]): 15.7%
inhibition at 200 µM (HCT-116 cells; [2]): 31.1%
Cancer cell growth rate Average (%) (HCT-116 cells; KN510 100 μM): 84.28%
Cancer cell growth rate Average (%) (HCT-116 cells; KN510 200 μM): 68.86%
inhibition at 100 µM (SF295 cells; Homo sapiens, SF-295, KN510 100 μM, read-out: Inhibition rate of cancer cell growth (%) (Actual value)): 32%
inhibition at 200 µM (SF295 cells; Homo sapiens, SF-295, KN510 200 μM, read-out: Inhibition rate of cancer cell growth (%) (Actual value)): 63.5%
Cancer cell growth rate Average (%) (SF295 cells; KN510 100 μM): 67.98%
Cancer cell growth rate Average (%) (SF295 cells; KN510 200 μM): 36.53%
inhibition at 100 µM (Hep-3B cells; Homo sapiens, Hep3B, KN510 100 μM, read-out: Inhibition rate of cancer cell growth (%) (Actual value)): 15.1%
inhibition at 200 µM (Hep-3B cells; Homo sapiens, Hep3B, KN510 200 μM, read-out: Inhibition rate of cancer cell growth (%) (Actual value)): 40.1%
Cancer cell growth rate Average (%) (Hep-3B cells; KN510 100 μM): 84.95%
Cancer cell growth rate Average (%) (Hep-3B cells; KN510 200 μM): 59.89%
inhibition at 100 µM (K562 cells; [1]): 44.8%
inhibition at 200 µM (K562 cells; [2]): 73%
Cancer cell growth rate Average (%) (K562 cells; KN510 100 μM): 55.18%
Cancer cell growth rate Average (%) (K562 cells; KN510 200 μM): 27.01%
inhibition at 100 µM (SK-MEL-5; [1]): 34.6%
inhibition at 200 µM (SK-MEL-5; [2]): 53.9%
Cancer cell growth rate Average (%) (SK-MEL-5; KN510 100 μM): 65.42%
Cancer cell growth rate Average (%) (SK-MEL-5; KN510 200 μM): 46.11%
inhibition at 100 µM (A549 cells; [1]): 44.6%
inhibition at 200 µM (A549 cells; [2]): 69.7%
Cancer cell growth rate Average (%) (A549 cells; KN510 100 μM): 55.44%
Cancer cell growth rate Average (%) (A549 cells; KN510 200 μM): 30.29%
inhibition at 100 µM (SK-OV-3 cells; [1]): 11.5%
inhibition at 200 µM (SK-OV-3 cells; [2]): 59.8%
Cancer cell growth rate Average (%) (SK-OV-3 cells; KN510 100 μM): 88.53%
Cancer cell growth rate Average (%) (SK-OV-3 cells; KN510 200 μM): 40.18%
inhibition at 100 µM (PC-3 cells; [1]): 46.6%
inhibition at 200 µM (PC-3 cells; [2]): 66.2%
Cancer cell growth rate Average (%) (PC-3 cells; KN510 100 μM): 53.42%
Cancer cell growth rate Average (%) (PC-3 cells; KN510 200 μM): 33.81%
inhibition at 100 µM (PANC-1 cells; [1]): 55.5%
inhibition at 200 µM (PANC-1 cells; [2]): 89%
Cancer cell growth rate Average (%) (PANC-1 cells; KN510 100 μM): 44.47%
Cancer cell growth rate Average (%) (PANC-1 cells; KN510 200 μM): 10.96%
inhibition at 100 µM (CAKI-1 cells; [1]): 32%
inhibition at 200 µM (CAKI-1 cells; [2]): 72.9%
Cancer cell growth rate Average (%) (CAKI-1 cells; KN510 100 μM): 67.99%
Cancer cell growth rate Average (%) (CAKI-1 cells; KN510 200 μM): 27.11%
inhibition at 100 µM (AGS cells; [1]): 39.6%
inhibition at 200 µM (AGS cells; [2]): 69.5%
Cancer cell growth rate Average (%) (AGS cells; KN510 100 μM): 60.39%
Cancer cell growth rate Average (%) (AGS cells; KN510 200 μM): 30.51%
inhibition at 100 µM (MKN-28 cells; [1]): 50.2%
inhibition at 200 µM (MKN-28 cells; [2]): 74.8%
Cancer cell growth rate Average (%) (MKN-28 cells; KN510 100 μM): 49.80%
Cancer cell growth rate Average (%) (MKN-28 cells; KN510 200 μM): 25.20%
